Experimental findings from patent US20260273073A1, “TRANSDUCIN BETA-LIKE PROTEIN 1 DEGRADERS” (Ohio State Innovation Foundation, priority 2023, published 2026) are described below.

Format in all cases: cell-based
One assay has as its system Pfeiffer. In words: PROTAC compounds evaluated against lymphoma cell line Pfeiffer. How it is done:
(§1) A library of PROTAC compounds was prepared according to the sequences depicted in FIGS. 1 and 2. These compounds were evaluated against three different lymphoma cell lines (Riva, Pfeiffer, and Granta-519): […]

The test system of the next assay is Riva. In words: PROTAC compounds evaluated against lymphoma cell line Riva. How it is done:
as §1

The next assay has as its system Granta-519. In words: PROTAC compounds evaluated against lymphoma cell line Granta-519. The settings on record: Granta-519 lymphoma cell line. How it is done: as §1

Like-named read-outs stand apart in the source and are kept apart here.

The term IC50 denotes the concentration at which inhibition is half-maximal. Read a low IC50 as inhibition by little substance. In the case of `CC1CC(C)CN(S(=O)(=O)c2ccc3c(c2)C(=NO)c2cc(S(=O)(=O)N4CCN(C(=O)CCOCCNc5cccc6c5C(=O)N(C5CCC(=O)NC5=O)C6=O)CC4)ccc2C3=NO)C1` (stereo not drawn) [RY-3-122], the IC50 with Pfeiffer, in the assay on Riva and in the assay on Granta-519 was above 20000 nM throughout.
In the case of `CC1CC(C)CN(S(=O)(=O)c2ccc3c(c2)C(=NO)c2cc(S(=O)(=O)N4CC(C)CC(C)C4)ccc2C3=NOCCCNC(=O)CCNc2cccc3c2C(=O)N(C2CCC(=O)NC2=O)C3=O)C1` (stereo not drawn) [RY-3-127], the IC50 with Pfeiffer was found to be 189 nM; in the assay on Riva, 651 nM; with Granta-519 it was 323 nM.
The corresponding values for `CC1CC(C)CN(S(=O)(=O)c2ccc3c(c2)C(=NO)c2cc(S(=O)(=O)N4CCN(C(=O)CCCCNc5cccc6c5C(=O)N(C5CCC(=O)NC5=O)C6=O)CC4)ccc2C3=NO)C1` (stereo not drawn) [RY-3-120] are 647 nM, 560 nM and 496 nM.
In the case of `CC1CC(C)CN(S(=O)(=O)c2ccc3c(c2)C(=NO)c2cc(S(=O)(=O)N4CCN(C(=O)CCOCCOCCNc5cccc6c5C(=O)N(C5CCC(=O)NC5=O)C6=O)CC4)ccc2C3=NO)C1` (stereo not drawn) [RY-3-113], the IC50 with Pfeiffer, in the assay with Riva and in the assay on Granta-519 was above 20000 nM in each case.
As for `CC1CC(C)CN(S(=O)(=O)c2ccc3c(c2)C(=NO)c2cc(S(=O)(=O)N4CCN(C(=O)CCOCCOCCOCCNc5cccc6c5C(=O)N(C5CCC(=O)NC5=O)C6=O)CC4)ccc2C3=NO)C1` (stereo not drawn) [RY-3-123], the concentration for half-maximal inhibition (IC50) with Pfeiffer, in the assay with Riva and with Granta-519 was above 20000 nM throughout.
As to `CC1CC(C)CN(S(=O)(=O)c2ccc3c(c2)C(=NO)c2cc(S(=O)(=O)N4CCN(C(=O)CCCCCCNc5cccc6c5C(=O)N(C5CCC(=O)NC5=O)C6=O)CC4)ccc2C3=NO)C1` (stereo not drawn) [RY-3-108], the IC50 in the assay on Pfeiffer was 343 nM; in the assay with Riva, 605 nM; in the assay with Granta-519, 439 nM.
For the molecule `CC1CC(C)CN(S(=O)(=O)c2ccc3c(c2)C(=NO)c2cc(S(=O)(=O)N4CCN(C(=O)CCCCCCCCCCNc5cccc6c5C(=O)N(C5CCC(=O)NC5=O)C6=O)CC4)ccc2C3=NO)C1` (stereo not drawn) [RY-3-121], the IC50 with Pfeiffer came to 2500 nM; in the assay with Riva it was 1160 nM; in the assay with Granta-519, 1160 nM.
Turning to `CC1CC(C)CN(S(=O)(=O)c2ccc3c(c2)C(=NO)c2cc(S(=O)(=O)N4CC(C)CC(C)C4)ccc2C3=NOCCCNC(=O)CCOCCNc2cccc3c2C(=O)N(C2CCC(=O)NC2=O)C3=O)C1` (stereo not drawn) [RY-3-129], the IC50 in the assay with Pfeiffer is 554 nM; with Riva, 1350 nM; in the assay with Granta-519, 1040 nM.
The like results for `CC1CC(C)CN(S(=O)(=O)c2ccc3c(c2)C(=NO)c2cc(S(=O)(=O)N4CC(C)CC(C)C4)ccc2C3=NOCCCNC(=O)CCCCCCNc2cccc3c2C(=O)N(C2CCC(=O)NC2=O)C3=O)C1` (stereo not drawn) [RY-3-130] were, in that order, 355 nM, 929 nM and 530 nM.
For `CC1CC(C)CN(S(=O)(=O)c2ccc3c(c2)C(=NO)c2cc(S(=O)(=O)N4CC(C)CC(C)C4)ccc2C3=NOCCCNC(=O)CCCCCCCCCCNc2cccc3c2C(=O)N(C2CCC(=O)NC2=O)C3=O)C1` (stereo not drawn) [RY-3-124], the 50% inhibitory concentration (IC50) in the assay with Pfeiffer, with Riva and in the assay with Granta-519 was above 20000 nM in each case.
For the molecule `C[C@@H]1C[C@H](C)CN(S(=O)(=O)c2ccc3c(c2)C(=NO)c2cc(S(=O)(=O)N4C[C@H](C)C[C@H](C)C4)ccc2C3=NO)C1` [Tegavivint, tegavivint, reference compound], the figures for the IC50 in the assay on Pfeiffer (Homo sapiens), with Riva and in the assay on Granta-519 (Homo sapiens) were 175 nM, 86 nM and 94 nM, respectively.
With `CC1CC(C)CN(S(=O)(=O)c2ccc3c(c2)C(=NO)c2cc(S(=O)(=O)N4CC(C)CC(C)C4)ccc2C3=NOCCCNC(=O)CCCCNc2cccc3c2C(=O)N(C2CCC(=O)NC2=O)C3=O)C1` (stereo not drawn) [RY-3-128], the values for the IC50 in the assay on Pfeiffer, in the assay on Riva and with Granta-519 were 398 nM, 795 nM and 523 nM, respectively.
For the molecule `CC1CC(C)CN(S(=O)(=O)c2ccc3c(c2)C(=NO)c2cc(S(=O)(=O)N4CC(C)CC(C)C4)ccc2C3=NOCCCNC(=O)CCOCCOCCNc2cccc3c2C(=O)N(C2CCC(=O)NC2=O)C3=O)C1` (stereo not drawn) [RY-3-131], the figures for the IC50 with Pfeiffer, in the assay with Riva and with Granta-519 were 1880 nM, above 20000 nM and above 20000 nM, respectively.
`CC1CC(C)CN(S(=O)(=O)c2ccc3c(c2)C(=NO)c2cc(S(=O)(=O)N4CCN(C(=O)CCNc5cccc6c5C(=O)N(C5CCC(=O)NC5=O)C6=O)CC4)ccc2C3=NO)C1` (stereo not drawn) [RY-3-119]: the half-maximal inhibitory concentration (IC50) in the assay on Pfeiffer is 564 nM; in the assay on Riva it was 797 nM; in the assay on Granta-519 it was 399 nM.
The corresponding values for `CC1CC(C)CN(S(=O)(=O)c2ccc3c(c2)C(=NO)c2cc(S(=O)(=O)N4CC(C)CC(C)C4)ccc2C3=NOCCCNC(=O)CCOCCOCCOCCNc2cccc3c2C(=O)N(C2CCC(=O)NC2=O)C3=O)C1` (stereo not drawn) [RY-3-132] are above 20000 nM, above 20000 nM and above 20000 nM.
